From patent publication US10561657B2, “Pyrrolopyrimidine compound” (CENTAURUS BIOPHARMA CO., LTD., priority 2014, dated 2020)
Where two headings read alike, the source gives them in different places. Blank lines part the entries; values can stand above or below the compound they belong to.

Experiments:
[1] = biological target: JAK2 kinase (wild type, JAK2^WT) (Homo sapiens (Human), UniProt O60674); assay: HTRF assay for enzymatic activity (IC50), JAK2 wild type; assay type: biochemical; conditions: ATP at Km, 120 min, 23 °C
Method: 1. Assay for Enzymatic Activity (IC50) of Compounds
A testing platform for kinase activity of JAK2 (wild type and V617F mutant type) was established based on Homogeneous Time-Resolved Fluorescence (HTRF) assay, and the activities of the compounds were tested using the platform. The compounds were subjected to three-fold gradient dilutions with 100% DMSO with a starting concentration of 1 mM (11 dilutions in total). 4 μL of each dilution was added to 96 μL of reaction buffer (50 mM HEPES, pH 7.4, 10 mM MgCl2, 1 mM EGTA, 0.01% Tween-20, 0.005% BAS, 2 mM DTT) and mixed homogeneously. […] The mixture was mixed homogeneously by centrifugation. […] The plate was incubated in the incubator for 1 hr, and then the fluorescence values were read on Envision (available from PerkinElmer). […] The enzymatic activity was representd by a ratio of the two readout at the two emission wavelengths. The enzymatic activity for each compound was tested at 11 concentrations, and IC50 values of the compounds were obtained by calculating the data using GraFit6.0 software (Erithacus Software). 2. Assay for cell proliferation activity (IC50) of compounds

[2] = Pharmacokinetic assay in adult female SD rats (30 mg/kg oral); assay type: in vivo
[3] = Pharmacokinetic assay in adult beagles (IV 5 mg/kg, PO 10 mg/kg); assay type: in vivo; conditions: for half-life / AUC(0-inf) / Cmax / Tmax: beagle, dog, plasma; for AUC(0-inf): read-out: AUCINF—obs
Text: Pharmacokinetic Assay in Adult Beagles

[4] = both sexes, IV 5 mg/kg, average
[5] = both sexes, PO 10 mg/kg, average

JAK2 kinase (wild type, JAK2^WT), sequence (O60674 whole entry): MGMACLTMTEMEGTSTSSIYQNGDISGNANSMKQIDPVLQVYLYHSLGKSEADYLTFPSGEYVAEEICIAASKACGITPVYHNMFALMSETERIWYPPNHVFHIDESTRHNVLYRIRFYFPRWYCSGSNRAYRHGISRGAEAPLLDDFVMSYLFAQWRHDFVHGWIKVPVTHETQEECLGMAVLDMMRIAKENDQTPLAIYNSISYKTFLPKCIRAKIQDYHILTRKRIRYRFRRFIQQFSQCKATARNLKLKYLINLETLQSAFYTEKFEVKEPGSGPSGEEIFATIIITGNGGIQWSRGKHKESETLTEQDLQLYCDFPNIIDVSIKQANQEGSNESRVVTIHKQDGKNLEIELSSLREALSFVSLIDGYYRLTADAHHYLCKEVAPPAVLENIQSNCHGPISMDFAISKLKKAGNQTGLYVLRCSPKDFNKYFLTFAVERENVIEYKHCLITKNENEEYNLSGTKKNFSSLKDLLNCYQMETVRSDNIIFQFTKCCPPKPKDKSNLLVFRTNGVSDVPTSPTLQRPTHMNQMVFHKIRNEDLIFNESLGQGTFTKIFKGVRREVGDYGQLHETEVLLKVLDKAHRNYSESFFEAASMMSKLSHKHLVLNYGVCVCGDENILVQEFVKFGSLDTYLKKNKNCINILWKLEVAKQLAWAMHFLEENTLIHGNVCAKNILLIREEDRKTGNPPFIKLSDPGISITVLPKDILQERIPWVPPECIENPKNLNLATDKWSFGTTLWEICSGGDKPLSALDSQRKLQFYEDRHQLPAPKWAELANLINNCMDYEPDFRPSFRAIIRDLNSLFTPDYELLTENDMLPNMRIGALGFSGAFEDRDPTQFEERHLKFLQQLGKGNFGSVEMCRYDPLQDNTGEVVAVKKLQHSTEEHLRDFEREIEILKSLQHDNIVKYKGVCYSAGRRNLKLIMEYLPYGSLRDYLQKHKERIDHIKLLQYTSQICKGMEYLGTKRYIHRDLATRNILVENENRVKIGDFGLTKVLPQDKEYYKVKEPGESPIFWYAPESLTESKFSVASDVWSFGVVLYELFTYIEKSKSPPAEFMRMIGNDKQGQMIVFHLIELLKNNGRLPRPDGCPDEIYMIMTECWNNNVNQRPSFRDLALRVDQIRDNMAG

IC50 [1]: < 20 nM
Structure (SMILES): N#CCC(C1CCCC1)n1ncc(-c2ncnc3[nH]ccc23)c1N (stereo not shown) [Example 3, 3-[5-amino-4-(7H-pyrrolo[2,3-d]pyrimidin-4-yl)-1H-pyrazol-1-yl]-3-cyclopentylpropanenitrile]

IC50 [1]: < 20 nM | AUCINFobs [2]: 6316 ng·h/mL | Cmax [2]: 2204 ng/mL | Tmax [2]: 0.58 h | t1/2 [2]: 2.20 h | Cl_obs ([3]; IV 5 mg/kg, average): 8.82 mL/min/kg | Vss_obs ([3]; IV 5 mg/kg, average): 1.974 L/kg | Cl_obs ([3]; IV 5 mg/kg, female): 7.37 mL/min/kg | Vss_obs ([3]; IV 5 mg/kg, female): 1.86 L/kg | Cl_obs ([3]; IV 5 mg/kg, male): 10.3 mL/min/kg | Vss_obs ([3]; IV 5 mg/kg, male): 2.089 L/kg | F ([3]; PO 10 mg/kg, average): 114% | F ([3]; PO 10 mg/kg, female): 119% | F ([3]; PO 10 mg/kg, male): 107% | half-life ([3]; IV 5 mg/kg, female): 3.65 h | AUC(0-inf) ([3]; IV 5 mg/kg, female): 11500 ng·h/mL | half-life ([3]; IV 5 mg/kg, male): 3.64 h | AUC(0-inf) ([3]; IV 5 mg/kg, male): 8190 ng·h/mL | Cmax ([3]; PO 10 mg/kg, female): 3980 ng/mL | Tmax ([3]; PO 10 mg/kg, female): 1.13 h | half-life ([3]; PO 10 mg/kg, female): 3.03 h | AUC(0-inf) ([3]; PO 10 mg/kg, female): 27400 ng·h/mL | Cmax ([3]; PO 10 mg/kg, male): 3830 ng/mL | Tmax ([3]; PO 10 mg/kg, male): 0.25 h | half-life ([3]; PO 10 mg/kg, male): 3.04 h | AUC(0-inf) ([3]; PO 10 mg/kg, male): 17500 ng·h/mL | half-life [3, 4]: 3.64 h | AUC(0-inf) [3, 4]: 9850 ng·h/mL | Cmax [3, 5]: 3900 ng/mL | Tmax [3, 5]: 0.69 h | half-life [3, 5]: 3.03 h | AUC(0-inf) [3, 5]: 22500 ng·h/mL
Structure (SMILES): N#CC[C@H](C1CCCC1)n1cc(-c2ncnc3[nH]ccc23)c(N)n1 [Example 5, (3R)-3-[3-amino-4-(7H-pyrrolo[2,3-d]pyrimidin-4-yl)-1H-pyrazol-1-yl]-3-cyclopentylpropanenitrile]

IC50 [1]: < 20 nM
Structure (SMILES): N#CC[C@@H](C1CCCC1)n1cc(-c2ncnc3[nH]ccc23)c(N)n1 [Example 6, (3S)-3-[3-amino-4-(7H-pyrrolo[2,3-d]pyrimidin-4-yl)-1H-pyrazol-1-yl]-3-cyclopentylpropanenitrile]

IC50 [1]: < 20 nM
Structure (SMILES): CC(=O)Nc1nn(C(CC#N)C2CCCC2)cc1-c1ncnc2[nH]ccc12 (stereo not shown) [Example 9, N-[1-(2-cyano-1-cyclopentylethyl)-4-(7H-pyrrolo[2,3-d]pyrimidin-4-yl)-1H-pyrazol-3-yl]acetamide]

IC50 [1]: < 20 nM
Structure (SMILES): N#CCC(C1CCCC1)n1cc(-c2ncnc3[nH]ccc23)c(NCCN2CCOCC2)n1 (stereo not shown) [Example 11, 3-cyclopentyl-3-[3-(2-morpholinylethylamino)-4-(7H-pyrrolo[2,3-d]pyrimidin-4-yl)-1H-pyrazol-1-yl]propionitrile]

IC50 [1]: < 20 nM
Structure (SMILES): N#CCC(C1CCCC1)n1cc(-c2ncnc3[nH]ccc23)c(NC(=O)CN2CCOCC2)n1 (stereo not shown) [Example 12, N-[1-(2-cyano-1-cyclopentylethyl)-4-(7H-pyrrolo[2,3-d]pyrimidin-4-yl)-1H-pyrazol-3-yl]-2-morpholinylacetamide]

IC50 [1]: < 20 nM
Structure (SMILES): N#CCC(C1CCCC1)n1cc(-c2ncnc3[nH]ccc23)c(NCCC(=O)N2CCOCC2)n1 (stereo not shown) [Example 13, 3-cyclopentyl-3-[3-(3-morpholinyl-3-oxopropylamino)-4-(7H-pyrrolo[2,3-d]pyrimidin-4-yl)-1H-pyrazol-1-yl]propionitrile]

IC50 [1]: < 20 nM
Structure (SMILES): N#CCC(C1CCCC1)n1cc(-c2ncnc3[nH]ccc23)c(NCC(=O)N2CCOCC2)n1 (stereo not shown) [Example 14, 3-cyclopentyl-3-[3-(2-morpholinyl-2-oxoethylamino)-4-(7H-pyrrolo[2,3-d]pyrimidin-4-yl)-1H-pyrazol-1-yl]propionitrile]

IC50 [1]: < 20 nM
Structure (SMILES): CCOC(=O)CCC(=O)Nc1nn(C(CC#N)C2CCCC2)cc1-c1ncnc2[nH]ccc12 (stereo not shown) [Example 15, Ethyl 4-[1-(2-cyano-1-cyclopentylethyl)-4-(7H-pyrrolo[2,3-d]pyrimidin-4-yl)-1H-pyrazol-3-ylamino]-4-oxobutanoate]

IC50 [1]: < 100 nM
Structure (SMILES): N#CCC(C1CCCC1)n1cc(-c2ncnc3[nH]ccc23)c(N2C(=O)CCC2=O)n1 (stereo not shown) [Example 16, 3-cyclopentyl-3-[3-(succinimid-1-yl)-4-(7H-pyrrolo[2,3-d]pyrimidin-4-yl)-1H-pyrazol-1-yl]propionitrile]

IC50 [1]: < 20 nM
Structure (SMILES): N#CCC(C1CCCC1)n1cc(-c2ncnc3[nH]ccc23)c(NC2CC(C(=O)N3CCOCC3)C2)n1 (stereo not shown) [Example 17, 3-[3-(3-morpholin-4-carbonyl)cyclobutylamino-4-(7H-pyrrolo[2,3-d]pyrimidin-4-yl)-1H-pyrazolyl]-3-cyclopentylpropanenitrile]

IC50 [1]: < 1000 nM
Structure (SMILES): N#CCC(C1CCCC1)n1cc(-c2ncnc3[nH]cc(Br)c23)c(Br)n1 (stereo not shown) [Example 18, 3-[3-bromo-4-(5-bromo-7H-pyrrolo[2,3-d]pyrimidin-4-yl)-1H-pyrazol-1-yl]-3-cyclopentylpropanenitrile]

IC50 [1]: < 20 nM
Structure (SMILES): N#CCC(C1CCCC1)n1cc(-c2ncnc3[nH]ccc23)c(Br)n1 (stereo not shown) [Example 19, 3-[3-bromo-4-(7H-pyrrolo[2,3-d]pyrimidin-4-yl)-1H-pyrazol-1-yl]-3-cyclopentylpropanenitrile]

IC50 [1]: < 20 nM
Structure (SMILES): N#CCC(C1CCCC1)n1cc(-c2ncnc3[nH]ccc23)c(C(N)=O)n1 (stereo not shown) [Example 24, 1-(2-cyano-1-cyclopentylethyl)-4-(7H-pyrrolo[2,3-d]pyrimidin-4-yl)-1H-pyrazol-3-formamide]

IC50 [1]: < 20 nM
Structure (SMILES): CNC(=O)c1nn(C(CC#N)C2CCCC2)cc1-c1ncnc2[nH]ccc12 (stereo not shown) [Example 25, 1-(2-cyano-1-cyclopentylethyl)-N-methyl-4-(7H-pyrrolo[2,3-d]pyrimidin-4-yl)-1H-pyrazol-3-formamide]

IC50 [1]: < 20 nM
Structure (SMILES): N#CCC(C1CCCC1)n1cc(-c2ncnc3[nH]ccc23)c(C(=O)NCCN)n1 (stereo not shown) [Example 26, N-(2-aminoethyl)-1-(2-cyano-1-cyclopentylethyl)-4-(7H-pyrrolo[2,3-d]pyrimidin-4-yl)-1H-pyrazol-3-formamide]

IC50 [1]: < 20 nM
Structure (SMILES): N#CCC(C1CCCC1)n1cc(-c2ncnc3[nH]ccc23)c(C#N)n1 (stereo not shown) [Example 27, 1-(2-cyano-1-cyclopentylethyl)-4-(7H-pyrrolo[2,3-d]pyrimidin-4-yl)-1H-pyrazol-3-carbonitrile]

IC50 [1]: < 20 nM
Structure (SMILES): N#CCC(C1CCCC1)n1cc(-c2ncnc3[nH]ccc23)c(CO)n1 (stereo not shown) [Example 28, 3-cyclopentyl-3-[3-(hydroxymethyl)-4-(7H-pyrrolo[2,3-d]pyrimidin-4-yl)-1H-pyrazol-1-yl]propionitrile]
